Measurements: patent US20180298010A1, “PRMT5 INHIBITORS AND USES THEREOF” (Epizyme, Inc., priority 2012, published 2018)
pIC50: −log10 of the molar value.

What follows are compounds tested against T1, PRMT5/MEP50 (Homo sapiens, UniProt O14744) (assay: PRMT5 Biochemical Assay (PRMT5/MEP50 enzyme assay on peptide substrate, 3H-SAM Flashplate)).
T1 construct: Flag-PRMT5; 6His-MEP50
Excerpt: General Materials. S-adenosylmethionine (SAM), S-adenosylhomocysteine (SAH), bicine, KCl, Tween20, dimethylsulfoxide (DMSO), bovine skin gelatin (BSG), and Tris(2-carboxyethyl)phosphine hydrochloride solution (TCEP) were purchased from Sigma-Aldrich at the highest level of purity possible. ^3H-SAM was purchase from American Radiolabeled Chemicals with a specific activity of 80 Ci/mmol. 384-well streptavidin Flashplates were purchased from PerkinElmer.
Substrates. Peptide representative of human histone H4 residues 1-15 was synthesized with a C-terminal linker-affinity tag motif and a C-terminal amide cap by 21st Century Biochemicals. The peptide was high high-perfomance liquid chromatography (HPLC) purified to greater than 95% purity and confirmed by liquid chromatography mass spectrometry (LC-MS). The sequence was Ac-[…][K-Biot]-amide (SEQ ID NO.:3).
Molecular Biology: Full-length human PRMT5 (NM_006109.3) transcript variant 1 clone was amplified from a fetal brain cDNA library, incorporating flanking 5′ sequence encoding a FLAG tag ([…]) (SEQ ID NO.:4) fused directly to Ala 2 of PRMT5. Full-length human MEP50 (NM_024102) clone was amplified from a human testis cDNA library incorporating a 5′ sequence encoding a 6-histidine tag (MHHHHHH) (SEQ ID NO.:5) fused directly to Arg 2 of MEP50. The amplified genes were sublconed into pENTR/D/TEV (Life Technologies) and subsequently transferred by Gateway™ attL×attR recombination to pDEST8 baculvirus expression vector (Life Technologies).
Protein Expression. Recombinant baculovirus and Baculovirus-Infected Insect Cells (BIIC) were generated according to Bac-to-Bac kit instructions (Life Technologies) and Wasilko, 2006, respectively. Protein over-expression was accomplished by infecting exponentially growing Spodoptera frugiperda (SF9) cell culture at 1.2×10^6cell/ml with a 5000 fold dilution of BIIC stock. Infections were carried out at 27° C. for 72 hours, harvested by centrifugation, and stored at −80° C. for purification.
Protein Purification. […] Flag-PRMT5/6His-MeP50 was eluted with 300 mM Imidazole in the same buffer. The purity of recovered protein was 87%. Reference: Wasilko, D. J. and S. E. Lee: “TIPS: titerless infected-cells preservation and scale-up” Bioprocess J., 5 (2006), pp. 29-32.
General Procedure for PRMT5/MEP50 Enzyme Assays on Peptide Substrates. The assays were all performed in a buffer consisting of 20 mM Bicine (pH=7.6), 1 mM TCEP, 0.005% BSG, and 0.002% Tween20, prepared on the day of use. Compounds in 100% DMSO (1 ul) were spotted into a polypropylene 384-well V-bottom plates (Greiner) using a Platemate Plus outfitted with a 384-channel head (Thermo Scientific). DMSO (1 ul) was added to Columns 11, 12, 23, 24, rows A-H for the maximum signal control and 1 ul of SAH, a known product and inhibitor of PRMT5/MEP50, was added to columns 11, 12, 23, 24, rows I-P for the minimum signal control. A cocktail (40 ul) containing the PRMT5/MEP50 enzyme and the peptide was added by Multidrop Combi (Thermo-Fisher). The compounds were allowed to incubate with PRMT5/MEP50 for 30 min at 25 degrees Celsius, then a cocktail (10 ul) containing ^3H-SAM was added to initiate the reaction (final volume=51 ul). The final concentrations of the components were as follows: PRMT5/MEP50 was 4 nM, ^3H-SAM was 75 nM, peptide was 40 nM, SAH in the minimum signal control wells was 100 uM, and the DMSO concentration was […]. The assays were stopped by the addition of non-radioactive SAM (10 ul) to a final concentration of 600 uM, which dilutes the ^3H-SAM to a level where its incorporation into the peptide substrate is no longer detectable. 50 ul of the reaction in the 384-well polypropylene plate was then transferred to a 384-well Flashplate and the biotinylated peptides were allowed to bind to the streptavidin surface for at least 1 hour before being washed three times with 0.1% Tween20 in a Biotek ELx405 plate washer. […]

T1 sequence (O14744 with tags, fused parts or gaps): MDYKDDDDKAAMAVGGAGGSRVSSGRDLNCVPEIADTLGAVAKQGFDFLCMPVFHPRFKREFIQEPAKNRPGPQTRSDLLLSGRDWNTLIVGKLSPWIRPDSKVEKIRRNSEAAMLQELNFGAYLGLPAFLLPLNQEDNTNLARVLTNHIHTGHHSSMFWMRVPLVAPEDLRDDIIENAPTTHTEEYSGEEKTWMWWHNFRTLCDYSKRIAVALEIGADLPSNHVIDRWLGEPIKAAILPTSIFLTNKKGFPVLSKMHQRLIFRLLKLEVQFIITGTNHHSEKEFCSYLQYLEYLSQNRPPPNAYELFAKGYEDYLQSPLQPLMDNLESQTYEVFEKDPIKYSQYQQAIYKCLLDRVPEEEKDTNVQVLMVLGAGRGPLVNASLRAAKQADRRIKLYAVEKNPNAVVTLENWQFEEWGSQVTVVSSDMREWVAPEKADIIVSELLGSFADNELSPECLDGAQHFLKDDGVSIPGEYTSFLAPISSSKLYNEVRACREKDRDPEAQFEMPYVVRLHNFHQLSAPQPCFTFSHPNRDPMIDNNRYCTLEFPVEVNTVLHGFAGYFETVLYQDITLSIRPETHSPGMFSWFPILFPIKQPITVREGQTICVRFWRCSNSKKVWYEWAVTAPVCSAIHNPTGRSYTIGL
T1 sequence (Q9BQA1 with tags, fused parts or gaps partner): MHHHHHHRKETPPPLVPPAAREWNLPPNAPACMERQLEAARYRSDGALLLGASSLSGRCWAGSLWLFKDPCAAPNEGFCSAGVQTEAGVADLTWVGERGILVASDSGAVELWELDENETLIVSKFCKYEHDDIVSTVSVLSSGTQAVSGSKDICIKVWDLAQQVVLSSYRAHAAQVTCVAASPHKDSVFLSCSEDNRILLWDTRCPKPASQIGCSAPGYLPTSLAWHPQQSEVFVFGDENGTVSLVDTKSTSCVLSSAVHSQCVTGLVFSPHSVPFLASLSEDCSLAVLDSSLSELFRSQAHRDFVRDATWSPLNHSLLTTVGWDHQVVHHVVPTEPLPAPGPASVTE

pIC50	Compound
5.00 to 6.00	OC(COc1cccc(-c2cc(Cl)cc(C(F)(F)F)c2)c1)CN1CCc2ccccc2C1 (centres unmarked) [Compound 128]
6.00 to 7.00	CS(=O)(=O)Nc1ccc(-c2cccc(OCC(O)CN3CCc4ccccc4C3)c2)cc1 (centres unmarked) [Compound 129]
6.00 to 7.00	CS(=O)(=O)c1cccc(-c2cccc(OCC(O)CN3CCc4ccccc4C3)c2)c1 (centres unmarked) [Compound 130]
6.00 to 7.00	OC(COc1cccc(-c2ccccc2C(F)(F)F)c1)CN1CCc2ccccc2C1 (centres unmarked) [Compound 132]
5.00 to 6.00	OC(COc1cccc(-c2ccc(C(F)(F)F)cc2)c1)CN1CCc2ccccc2C1 (centres unmarked) [Compound 133]
6.00 to 7.00	COc1ccc(Cl)cc1-c1cccc(OCC(O)CN2CCc3ccccc3C2)c1 (centres unmarked) [Compound 134, 1-((5′-chloro-2′-methoxy-[1,1′-biphenyl]-3-yl)oxy)-3-(3,4-dihydroisoquinolin-2(1H)-yl)propan-2-ol]
5.00 to 6.00	OC(COc1cccc(-c2cncnc2)c1)CN1CCc2ccccc2C1 (centres unmarked) [Compound 140]
5.00 to 6.00	COc1cccc2c1CCN(CC(O)COc1cccc(-c3ccc4ncn(C)c4c3)c1)C2 (centres unmarked) [Compound 142]
6.00 to 7.00	Cn1ccc2ccc(-c3cccc(OCC(O)CN4CCc5ccccc5C4)c3)cc21 (centres unmarked) [Compound 147]
6.00 to 7.00	CC(C)(C)OCc1cccc(-c2cccc(OCC(O)CN3CCc4ccccc4C3)c2)c1 (centres unmarked) [Compound 150]
6.00 to 7.00	CN(C)c1ccc(-c2cccc(OCC(O)CN3CCc4ccccc4C3)c2)cc1 (centres unmarked) [Compound 151]
6.00 to 7.00	NC(=O)c1ccc(-c2cccc(OCC(O)CN3CCc4ccccc4C3)c2)cc1 (centres unmarked) [Compound 152]
5.00 to 6.00	COc1ncc(-c2cccc(OCC(O)CN3CCc4ccccc4C3)c2)cn1 (centres unmarked) [Compound 153]
5.00 to 6.00	O=C(Nc1cccc(OCC(O)CN2CCc3ccccc3C2)c1)c1cnco1 (centres unmarked) [Compound 158]
5.00 to 6.00	O=C(Nc1cccc(OCC(O)CN2CCc3ccccc3C2)c1)c1cocn1 (centres unmarked) [Compound 159]
5.00 to 6.00	Cn1ccc(C(=O)Nc2cccc(OCC(O)CN3CCc4ccccc4C3)c2)n1 (centres unmarked) [Compound 162]
5.00 to 6.00	O=C(Nc1cccc(OCC(O)CN2CCc3ccccc3C2)c1)c1cccnn1 (centres unmarked) [Compound 164]

pIC50	Compound
6.00 to 7.00	COc1ccc(-c2cccc(OCC(O)CN3CCc4ccccc4C3)c2)cc1Cl (centres unmarked) [Compound 168]
6.00 to 7.00	CC(=O)Nc1cccc(-c2cccc(OCC(O)CN3CCc4ccccc4C3)c2)c1 (centres unmarked) [Compound 169]
6.00 to 7.00	OC(COc1cccc(-c2csc3ccccc23)c1)CN1CCc2ccccc2C1 (centres unmarked) [Compound 170]
6.00 to 7.00	NC(=O)c1cccc(-c2cccc(OCC(O)CN3CCc4ccccc4C3)c2)c1 (centres unmarked) [Compound 171]
6.00 to 7.00	N#Cc1cccc(-c2cccc(OCC(O)CN3CCc4ccccc4C3)c2)c1 (centres unmarked) [Compound 172]
6.00 to 7.00	CCC1c2ccccc2CCN1CC(O)COc1cccc(-c2ccc3ncn(C)c3c2)c1 (centres unmarked) [Compound 179]
5.00 to 6.00	O=C(c1cncc(-c2cccc(OCC(O)CN3CCc4ccccc4C3)c2)c1)N1CCCC1 (centres unmarked) [Compound 181]
6.00 to 7.00	O=C(c1cccc(-c2cccc(OCC(O)CN3CCc4ccccc4C3)c2)c1)N1CCCC1 (centres unmarked) [Compound 185]
6.00 to 7.00	CNC(=O)c1cccc(-c2cccc(OCC(O)CN3CCc4ccccc4C3)c2)c1 (centres unmarked) [Compound 186]
6.00 to 7.00	Cc1cn(C)c2cc(-c3cccc(OCC(O)CN4CCc5ccccc5C4)c3)ccc12 (centres unmarked) [Compound 187]
6.00 to 7.00	OC(COc1cccc(-c2ccc3ncoc3c2)c1)CN1CCc2ccccc2C1 (centres unmarked) [Compound 188]
5.00 to 6.00	OC(COc1cccc(-c2ccncc2F)c1)CN1CCc2ccccc2C1 (centres unmarked) [Compound 190]
5.00 to 6.00	Cc1cccc2c1CN(CC(O)COc1cccc(-c3ccc4ncn(C)c4c3)c1)CC2 (centres unmarked) [Compound 192]
5.00 to 6.00	CN(C(=O)c1cnco1)c1cccc(OCC(O)CN2CCc3ccccc3C2)c1 (centres unmarked) [Compound 196]
4.40 to 5.00	CN(C(=O)c1cocn1)c1cccc(OCC(O)CN2CCc3ccccc3C2)c1 (centres unmarked) [Compound 198]
6.00 to 7.00	CC(C)Oc1ccc(F)c(-c2cccc(OCC(O)CN3CCc4ccccc4C3)c2)c1 (centres unmarked) [Compound 201]
5.00 to 6.00	CN(C(=O)c1cncn1C)c1cccc(OCC(O)CN2CCc3ccccc3C2)c1 (centres unmarked) [Compound 203]

Continued, compound first:

Compound	pIC50
CS(=O)(=O)c1ccccc1-c1cccc(OCC(O)CN2CCc3ccccc3C2)c1 (centres unmarked) [Compound 131]	6.00 to 7.00
Cn1ncc2ccc(-c3cc(COCC(O)CN4CCc5ccccc5C4)on3)cc21 (centres unmarked) [Compound 136]	6.00 to 7.00
CC(=O)c1ccc(-c2cccc(OCC(O)CN3CCc4ccccc4C3)c2)cc1 (centres unmarked) [Compound 137]	6.00 to 7.00
Cc1ccc(F)c(-c2cccc(OCC(O)CN3CCc4ccccc4C3)c2)c1 (centres unmarked) [Compound 138]	6.00 to 7.00
OC(COc1cccc(-c2cccnc2F)c1)CN1CCc2ccccc2C1 (centres unmarked) [Compound 139]	6.00 to 7.00
CCOC(=O)CC1c2ccccc2CCN1CC(O)COc1cccc(-c2ccc3ncn(C)c3c2)c1 (centres unmarked) [Compound 144]	5.00 to 6.00
O=C1NCc2ccc(-c3cccc(OCC(O)CN4CCc5ccccc5C4)c3)cc21 (centres unmarked) [Compound 148]	6.00 to 7.00
OC(COc1cccc(-c2ccccc2F)c1)CN1CCc2ccccc2C1 (centres unmarked) [Compound 154]	6.00 to 7.00
OC(COc1cccc(-c2cnccn2)c1)CN1CCc2ccccc2C1 (centres unmarked) [Compound 155]	5.00 to 6.00
O=C1COc2ccc(-c3cccc(OCC(O)CN4CCc5ccccc5C4)c3)cc2N1 (centres unmarked) [Compound 156, 6-(3-(3-(3,4-dihydroisoquinolin-2(1H)-yl)-2-hydroxypropoxy)phenyl)-2H-benzo[b][1,4]oxazin-3(4H)-one]	6.00 to 7.00
Cn1nccc1C(=O)Nc1cccc(OCC(O)CN2CCc3ccccc3C2)c1 (centres unmarked) [Compound 160]	5.00 to 6.00
O=C(Nc1cccc(OCC(O)CN2CCc3ccccc3C2)c1)c1cncnc1 (centres unmarked) [Compound 161]	5.00 to 6.00
OC(COc1cccc(-c2ccc3cnoc3c2)c1)CN1CCc2ccccc2C1 (centres unmarked) [Compound 166]	5.00 to 6.00
OC(COc1cccc(-c2ccccc2Oc2ccccc2)c1)CN1CCc2ccccc2C1 (centres unmarked) [Compound 167, 1-(3,4-dihydroisoquinolin-2(1H)-yl)-3-((2′-phenoxy-[1,1′-biphenyl]-3-yl)oxy)propan-2-ol]	6.00 to 7.00
OC(COC1CCN(c2ccccc2)C1)CN1CCc2ccccc2C1 (centres unmarked) [Compound 175]	5.00 to 6.00
COc1ccc2c(c1)CN(CC(O)COc1cccc(-c3ccc4ncn(C)c4c3)c1)CC2 (centres unmarked) [Compound 177]	4.40 to 5.00
CNC(=O)c1cncc(-c2cccc(OCC(O)CN3CCc4ccccc4C3)c2)c1 (centres unmarked) [Compound 182]	5.00 to 6.00
Cn1cnc(C(=O)Nc2cccc(OCC(O)CN3CCc4ccccc4C3)c2)c1 (centres unmarked) [Compound 183]	5.00 to 6.00
O=C(Nc1cccc(OCC(O)CN2CCc3ccccc3C2)c1)c1ccnnc1 (centres unmarked) [Compound 184]	5.00 to 6.00
Cn1cnc2cnc(-c3cccc(OCC(O)CN4CCc5ccccc5C4)c3)nc21 (centres unmarked) [Compound 191]	6.00 to 7.00
OC(COc1cccc(N2CCc3[nH]nc(-c4ccccc4)c3C2)c1)CN1CCc2ccccc2C1 (centres unmarked) [Compound 194]	5.00 to 6.00
Cn1cncc1C(=O)Nc1cccc(OCC(O)CN2CCc3ccccc3C2)c1 (centres unmarked) [Compound 195]	5.00 to 6.00
CN(C(=O)c1cn(C)cn1)c1cccc(OCC(O)CN2CCc3ccccc3C2)c1 (centres unmarked) [Compound 197]	5.00 to 6.00
OC(COc1cccc(-c2cc(OC(F)(F)F)ccc2Cl)c1)CN1CCc2ccccc2C1 (centres unmarked) [Compound 200]	6.00 to 7.00
CN(C(=O)c1cccnc1)c1cccc(OCC(O)CN2CCc3ccccc3C2)c1 (centres unmarked) [Compound 204]	5.00 to 6.00
